In article PMC7802075 (ACS Infectious Diseases, 2020):
Where a name gives a salt, the structure may show the parent alone. Read-outs that look alike come from different tables or passages of the source.

Target: T1, LmjIPCS (inositol phosphorylceramide synthase from L. major) (Leishmania major, UniProt E9AFX2)
T1 sequence (E9AFX2 1-338): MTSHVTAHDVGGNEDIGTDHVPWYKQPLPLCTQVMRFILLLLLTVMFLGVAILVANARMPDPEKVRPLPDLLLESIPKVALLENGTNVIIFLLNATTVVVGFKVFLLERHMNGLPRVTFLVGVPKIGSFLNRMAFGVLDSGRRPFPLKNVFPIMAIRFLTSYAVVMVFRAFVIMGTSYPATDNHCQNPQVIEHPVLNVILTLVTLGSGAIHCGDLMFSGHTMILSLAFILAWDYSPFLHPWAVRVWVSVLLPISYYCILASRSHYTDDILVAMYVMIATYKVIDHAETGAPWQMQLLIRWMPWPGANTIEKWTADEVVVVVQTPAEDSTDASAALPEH
Assay: biochemical
Format: biochemical
Parameters: inhibition: dose or concentration left out as unconfirmed
Conditions: for inhibition: read-out: inhibition LmjIPCS; for inhibition at 20000 µM: read-out: 20mM inhibition LmjIPCS

[1] = NINDS set screen, single concentration printed as 20mM
[2] = screening of NINDS set, sheet Screen 1

C[C@]12CC[C@@H]3c4ccc(O)cc4CC[C@H]3[C@@H]1C[C@@H](O)[C@@H]2O [ESTRIOL] gave an inhibition of 1.42%.

For CC(C)(Oc1ccc(CCNC(=O)c2ccc(Cl)cc2)cc1)C(=O)O [BEZAFIBRATE], the inhibition was 11%.

CC(=O)Oc1ccccc1C(=O)Oc1ccccc1C(=O)O [DIPLOSALSALATE] was tested, and the “20mM inhibition LmjIPCS” value [1] was 67%.

In the case of COc1ccc(C(=O)c2ccccc2)c(O)c1 [OXYBENZONE], the “20mM inhibition LmjIPCS” value [1] is reported as 34%.

In the case of CC(C)Cn1c(=O)n(C)c(=O)c2[nH]cnc21 [ISOBUTYLMETHYLXANTHINE], the inhibition is reported as 14%.

For CC(NCCc1ccc(O)cc1)C(O)c1ccc(O)cc1 (stereo not drawn) [RITODRINE], the “20mM inhibition LmjIPCS” value was 58%.

With O=C(O)c1cccnc1 [NIACIN] the inhibition at 20000 µM was 15%.

COc1ccc2c(c1)c(CC(=O)O)c(C)n2C(=O)c1ccc(Cl)cc1 [INDOMETHACIN] gave an inhibition of -3.42%.

With C=CCSCC1Nc2cc(Cl)c(S(N)(=O)=O)cc2S(=O)(=O)N1 (stereo not drawn) [ALTHIAZIDE] the inhibition (NINDS set screen) was 11%.

O=C1C=C2C(=CCOC2O)O1 (stereo not drawn) [PATULIN] showed an inhibition at 20000 µM of 0.294%.

In the case of CC1(C)O[C@@H]2C[C@H]3[C@@H]4CCC5=CC(=O)CC[C@]5(C)[C@@]4(F)[C@@H](O)C[C@]3(C)[C@]2(C(=O)CCl)O1 [HALCINONIDE], the inhibition at 20000 µM is reported as 20%.

O[C@@H]1CCCC[C@H]1N1CCC(c2ccccc2)CC1 (racemic) [VESAMICOL] showed an inhibition at 20000 µM of 14%.

CC(C)=CCC/C(C)=C\CO [NEROL] gave an inhibition of 33%.

For CC1=NN(c2ccccc2)C(=O)C1 [3-METHYL-1-PHENYL-2-PYRAZOLIN-5-ONE], the “20mM inhibition LmjIPCS” value was 4.33%.

In the case of SPIRAMYCIN, the “20mM inhibition LmjIPCS” value (single concentration 20mM as printed, screening of NINDS set, sheet Screen 1) is reported as 10%.

With C=C(C)[C@H]1CN[C@H](C(=O)O)[C@H]1CC(=O)O [KAINIC ACID] the inhibition at 20000 µM was 14%.

For [N-]=[N+]=CC(=O)OC[C@H](N)C(=O)O [AZASERINE], the inhibition at 20000 µM was 14%.

With C[C@H]1O[C@@H](O[C@H]2[C@@H](O)C[C@H](O[C@H]3[C@@H](O)C[C@H](O[C@H]4CC[C@@]5(C)[C@H](CC[C@@H]6[C@@H]5CC[C@]5(C)[C@@H](C7=CC(=O)OC7)CC[C@]65O)C4)O[C@@H]3C)O[C@@H]2C)C[C@H](O)[C@@H]1O [DIGITOXIN] the inhibition at 20000 µM was 5.28%.

CC(=O)N[C@@H](CC(=O)N[C@@H](CCC(=O)O)C(=O)O)C(=O)O [SPAGLUMIC ACID] showed an inhibition at 20000 µM of 1.82%.

COc1ccc(OC)c(C(O)C(C)N)c1 (stereo not drawn) [METHOXAMINE] gave an inhibition at 20000 µM of 24%.

With CCOc1nc2cccc(C(=O)OC(C)OC(=O)OC3CCCCC3)c2n1Cc1ccc(-c2ccccc2-c2nn[nH]n2)cc1 (stereo not drawn) [CANDESARTAN CILEXTIL] the “20mM inhibition LmjIPCS” value was 11%.

Cc1nnc(SCC2=C(C(=O)O)N3C(=O)[C@@H](NC(=O)Cn4cnnn4)[C@H]3SC2)s1 [CEFAZOLIN] was tested, and the “20mM inhibition LmjIPCS” value was 35%.

In the case of CCCCC(=O)O[C@H]1CC[C@H]2[C@@H]3CCc4cc(O)ccc4[C@H]3CC[C@]12C [ESTRADIOL VALERATE], the “20mM inhibition LmjIPCS” value is reported as 66%.

With CCN1CCCC(OC(=O)C(c2ccccc2)c2ccccc2)C1 (stereo not drawn) [PIPERIDOLATE] the “20mM inhibition LmjIPCS” value was 39%.

CN1[C@H]2C[C@H](OC(=O)[C@H](CO)c3ccccc3)C[C@@H]1[C@@H](O)C2 [ANISODAMINE] was tested, and the “20mM inhibition LmjIPCS” value was 16%.

For Nc1ccc(S(=O)(=O)Nc2ccnn2-c2ccccc2)cc1 [SULFAPHENAZOLE], the inhibition (NINDS set screen) was 0.104%.

NNc1nncc2ccccc12 [HYDRALAZINE] showed an inhibition at 20000 µM of 15%.

For C[C@]12CC[C@@H](OS(=O)(=O)O)C[C@@H]1CC[C@@H]1[C@@H]2CC[C@]2(C)C(=O)CC[C@@H]12 [ANDROSTERONE Sulfate], the “20mM inhibition LmjIPCS” value was 33%.

Compound O=C(COc1ccc(Cl)cc1)N1CCN(Cc2ccc3c(c2)OCO3)CC1 [FIPEXIDE] has an inhibition [2] of 2.64%.

For C[C@@H]1C[C@H]2[C@@H]3C[C@H](F)C4=CC(=O)C=C[C@]4(C)[C@@]3(F)[C@@H](O)C[C@]2(C)[C@@]1(O)C(=O)COC(=O)C(C)(C)C [FLUMETHAZONE PIVALATE], the “20mM inhibition LmjIPCS” value was 14%.

CN(CCOc1ccc(CC2SC(=O)NC2=O)cc1)c1ccccn1 (stereo not drawn) [ROSIGLITAZONE] showed an inhibition [2] of 2.64%.

CCCC(=O)Nc1ccc(OCC(O)CNC(C)C)c(C(C)=O)c1 (stereo not drawn) [ACEBUTOLOL] was tested, and the inhibition was -2.11%.

Cn1cnc2c1c(=O)[nH]c(=O)n2C [THEOBROMINE] showed an inhibition at 20000 µM of 24%.

CN1C(C(=O)Nc2ccccn2)=C(O)c2sccc2S1(=O)=O [TENOXICAM] showed an inhibition of 7.55%.

NC[C@H]1CC[C@H](C(=O)O)CC1 [TRANEXAMIC ACID] was tested, and the inhibition [2] was 2.2%.

Work on COc1ccc2cc3[n+](cc2c1OC)CCc1cc2c(cc1-3)OCO2 [BERBERINE] yielded an inhibition of 6%.

CO[C@H]1/C=C/O[C@@]2(C)Oc3c(C)c(O)c4c(O)c(c(/C=N/N5CCN(C)CC5)c(O)c4c3C2=O)NC(=O)/C(C)=C\C=C\[C@H](C)[C@H](O)[C@@H](C)[C@@H](O)[C@@H](C)[C@H](OC(C)=O)[C@@H]1C [RIFAMPIN] gave an inhibition at 20000 µM of 27%.

Work on CCC(=O)O[C@H]1[C@H](O[C@@H]2[C@@H](C)[C@H](O[C@H]3C[C@@](C)(OC)[C@@H](O)[C@H](C)O3)[C@@H](C)C(=O)O[C@H](CC)[C@@](C)(O)[C@H](O)[C@@H](C)C(=O)[C@H](C)C[C@@]2(C)O)O[C@H](C)C[C@@H]1N(C)C [ERYTHROMYCIN ESTOLATE] yielded an inhibition (NINDS set screen) of 22%.

For CC(CCc1ccccc1)NCC(O)c1ccc(O)c(C(N)=O)c1 (stereo not drawn) [LABETALOL], the “20mM inhibition LmjIPCS” value was 50%.

CN(N=O)C(=O)N[C@H]1C(O)O[C@H](CO)[C@@H](O)[C@@H]1O (mixture of isomers) [STREPTOZOSIN] showed an inhibition at 20000 µM of 16%.

Compound O=C(O)c1ccccc1Nc1cccc(C(F)(F)F)c1 [FLUFENAMIC ACID] has an inhibition at 20000 µM of -16%.

CN(C)CCOC(C)(c1ccccc1)c1ccccn1 (stereo not drawn) [DOXYLAMINE] gave an inhibition of 9%.

Work on CC(=O)NS(=O)(=O)c1ccc(N)cc1 [SULFACETAMIDE] yielded an inhibition at 20000 µM of -1.63%.

Cc1ccnc(NS(=O)(=O)c2ccc(N)cc2)n1 [SULFAMERAZINE] was tested, and the inhibition at 20000 µM was 3.51%.

With Cc1cc(O)ccc1Cl [CHLOROCRESOL] the “20mM inhibition LmjIPCS” value was 49%.

With COc1cc([C@@H]2c3cc4c(cc3[C@H](O)[C@H]3COC(=O)[C@H]23)OCO4)cc(OC)c1OC [PODOFILOX] the inhibition at 20000 µM was 21%.

O=c1cc(-c2ccccc2)oc2cc(O)c(O)c(O)c12 [BAICALEIN] gave an inhibition of 32%.

For COc1c(N2CCNC(C)C2)c(F)cc2c(=O)c(C(=O)O)cn(C3CC3)c12 (stereo not drawn) [GATIFLOXACIN], the inhibition [2] was 2.29%.

For CC(=O)OCC(CCn1cnc2cnc(N)nc21)COC(C)=O [FAMCICLOVIR], the inhibition at 20000 µM was 1.36%.

CC(=O)OC(C)C[N+](C)(C)C (stereo not drawn) [METHACHOLINE CHLORIDE] was tested, and the inhibition at 20000 µM was -18%.

With O=C(CCCCC(=O)Nc1c(I)cc(I)c(C(=O)O)c1I)Nc1c(I)cc(I)c(C(=O)O)c1I [IODIPAMIDE] the inhibition at 20000 µM was 7%.

With c1coc(CNc2ncnc3[nH]cnc23)c1 [KINETIN] the inhibition was 16%.

Compound NCC[C@H](O)C(=O)N[C@@H]1C[C@H](N)[C@@H](O[C@H]2O[C@H](CN)[C@@H](O)[C@H](O)[C@H]2O)[C@H](O)[C@H]1O[C@H]1O[C@H](CO)[C@@H](O)[C@H](N)[C@H]1O [AMIKACIN] has an inhibition (NINDS set screen) of 21%.

Compound COc1cc(NS(=O)(=O)c2ccc(N)cc2)nc(OC)n1 [SULFADIMETHOXINE] has an inhibition of 15%.

c1ccc2c(c1)CCCC2C1=NCCN1 (stereo not drawn) [TETRAHYDROZOLINE] gave an inhibition at 20000 µM of 8%.

For N[C@@H](C(=O)N[C@@H]1C(=O)N2C(C(=O)O)=C(Cl)CS[C@H]12)c1ccccc1 [CEFACLOR], the inhibition was 10%.

For CC1=C(C(=O)O)N2C(=O)[C@@H](NC(=O)[C@H](N)c3ccc(O)cc3)[C@H]2SC1 [CEFADROXIL], the “20mM inhibition LmjIPCS” value was 37%.
